Laboratory results: patent US20240216392A1, “METHODS OF TREAMENT” (Arena Pharmaceuticals, Inc., priority 2022, published 2024)
Read-outs that look alike come from different tables or passages of the source.

Legend:
serum prolactin = serum prolactin pharmacodynamics, Phase 1 study; assay type: in vivo, human
Procedure: The PD parameters listed in Table 13 were derived for serum prolactin based on actual times and were calculated using noncompartmental analysis (NCA) methods, as data permitted.

[1] = for CSF AUCtau, geometric mean (geometric CV %) / CSF Cavg, geometric mean (geometric CV %) / CSF Cmax, geometric mean (geometric CV %) / CSF Ctrough, geometric mean (geometric CV %): Day 11
plasma protein = experiment: clinical; settings: human, oral
[2] = tested on: UGT metabolic pathway and renal transporters; settings: single 12 mg dose with probenecid/cimetidine vs alone
clinical = settings: both, human, oral; for Tmax: CSF, CSF Tmax
[3] = safety and tolerability, Phase 1 study; assay type: in vivo, human
Procedure: (§1) For Cohorts 1 and 2, the study consisted of a Screening period (Day −28 to −2), an on-site period from Day −1 to Day 16 and a 10-day postdosing follow-up visit (Day 25). Subjects were admitted to the clinic on Day −1 of the assessment period and remained confined to the clinic until completion of the assessment period (or longer if the Investigator deemed it is clinically indicated for safety follow-up). Safety was assessed continuously from signing of informed consent form through follow up visit. Safety assessments including cardiac troponins, vital signs, 12-lead ECGs (electrocardiograms) were performed at screening and daily from Day −1 to Day 16, and follow-up. C-SSRS (Columbia-suicide severity rating scale) was assessed at screening, Days −1, 11, 16, and 25.
as §1, with “all cohorts,” for “Cohorts 1 and 2,”, “Safety assessments including cardiac troponins, vital signs, 12-lead ECGs (electrocardiograms) were performed at screening and daily from Day −1 to Day 16, and follow-up.” left out

## C[C@H]1CN2CCNCc3ccc(C(=O)NCC(F)F)c1c32 [Compound 1, (R)—N-(2,2-difluoroethyl)-7-methyl-1,2,3,4,6,7-hexahydro-[1,4]diazepino[6,7,1-hi]indole-8-carboxamide]
Serum prolactin; Day 1, Cohort 1 (3 mg doses)
  Serum prolactin AUEC, Change From Baseline, geometric mean: 13.2 ng·h/mL
  Serum prolactin AUEC, Raw, geometric mean: 95.0 ng·h/mL
  Serum prolactin Emax, Change From Baseline, geometric mean: 6.6 ng/mL
  Serum prolactin Emax, Raw, geometric mean: 17.8 ng/mL
  Serum prolactin Tmax, Raw, median: 7.84 h
Serum prolactin; Day 1, Cohort 2 (6 mg doses)
  Serum prolactin AUEC, Change From Baseline, geometric mean: 16.3 ng·h/mL
  Serum prolactin AUEC, Raw, geometric mean: 82.5 ng·h/mL
  Serum prolactin Emax, Change From Baseline, geometric mean: 4.4 ng/mL
  Serum prolactin Emax, Raw, geometric mean: 13.9 ng/mL
  Serum prolactin Tmax, Raw, median: 2.01 h
Serum prolactin; Day 1, Cohort 3 (6 mg doses)
  Serum prolactin AUEC, Change From Baseline, geometric mean: 15.0 ng·h/mL
  Serum prolactin AUEC, Raw, geometric mean: 93.6 ng·h/mL
  Serum prolactin Emax, Change From Baseline, geometric mean: 5.8 ng/mL
  Serum prolactin Emax, Raw, geometric mean: 16.4 ng/mL
  Serum prolactin Tmax, Raw, median: 1.56 h
Serum prolactin; Day 1, Cohort 4A (6 mg doses)
  Serum prolactin AUEC, Change From Baseline, geometric mean: 12.7 ng·h/mL
  Serum prolactin AUEC, Raw, geometric mean: 99.6 ng·h/mL
  Serum prolactin Emax, Change From Baseline, geometric mean: 9.1 ng/mL
  Serum prolactin Emax, Raw, geometric mean: 21.5 ng/mL
  Serum prolactin Tmax, Raw, median: 2.01 h
Serum prolactin; Day 1, Cohort 4B (6 mg doses)
  Serum prolactin AUEC, Raw, geometric mean: 80.4 ng·h/mL
  Serum prolactin Emax, Change From Baseline, geometric mean: 4.2 ng/mL
  Serum prolactin Emax, Raw, geometric mean: 15.6 ng/mL
  Serum prolactin Tmax, Raw, median: 0.48 h
Serum prolactin; Day 10, Cohort 1 (6 mg TID)
  Serum prolactin AUEC, Change From Baseline, geometric mean: 20.7 ng·h/mL
  Serum prolactin AUEC, Raw, geometric mean: 92.4 ng·h/mL
  Serum prolactin Emax, Change From Baseline, geometric mean: 6.0 ng/mL
  Serum prolactin Emax, Raw, geometric mean: 16.2 ng/mL
  Serum prolactin Tmax, Raw, median: 3.00 h
Serum prolactin; Day 10, Cohort 2 (12 mg TID)
  Serum prolactin AUEC, Change From Baseline, geometric mean: 14.4 ng·h/mL
  Serum prolactin AUEC, Raw, geometric mean: 92.0 ng·h/mL
  Serum prolactin Emax, Change From Baseline, geometric mean: 5.8 ng/mL
  Serum prolactin Emax, Raw, geometric mean: 16.0 ng/mL
  Serum prolactin Tmax, Raw, median: 7.84 h
Serum prolactin; Day 10, Cohort 3 (12 mg BID)
  Serum prolactin AUEC, Change From Baseline, geometric mean: 13.5 ng·h/mL
  Serum prolactin AUEC, Raw, geometric mean: 99.9 ng·h/mL
  Serum prolactin Emax, Change From Baseline, geometric mean: 7.2 ng/mL
  Serum prolactin Emax, Raw, geometric mean: 18.2 ng/mL
  Serum prolactin Tmax, Raw, median: 1.01 h
Serum prolactin; Day 10, Cohort 4A (15 mg BID)
  Serum prolactin AUEC, Raw, geometric mean: 84.3 ng·h/mL
  Serum prolactin Emax, Change From Baseline, geometric mean: 4.7 ng/mL
  Serum prolactin Emax, Raw, geometric mean: 14.7 ng/mL
  Serum prolactin Tmax, Raw, median: 2.00 h
Serum prolactin; Day 10, Cohort 4B (18 mg BID)
  Serum prolactin AUEC, Change From Baseline, geometric mean: 17.8 ng·h/mL
  Serum prolactin AUEC, Raw, geometric mean: 99.4 ng·h/mL
  Serum prolactin Emax, Change From Baseline, geometric mean: 8.1 ng/mL
  Serum prolactin Emax, Raw, geometric mean: 16.7 ng/mL
  Serum prolactin Tmax, Raw, median: 1.10 h
[1]; Cohort 2 (12 mg TID) and Cohort 4B (18 mg BID)
  CSF concentrations exceeding the relevant Ki for 5-HT2C agonism: ~2 fold
[1]; Cohort 1 (6 mg TID)
  CSF AUCtau, geometric mean (geometric CV %): 72.07 (25.7) h*ng/mL
  CSF Cavg, geometric mean (geometric CV %): 9.261 (2.2660) ng/mL
  CSF Cmax, geometric mean (geometric CV %): 11.88 (28.1) ng/mL
  CSF Ctrough, geometric mean (geometric CV %): 6.524 (1.8619) ng/mL
[1]; Cohort 2 (12 mg TID)
  CSF AUCtau, geometric mean (geometric CV %): 167.4 (60.3) h*ng/mL
  CSF Cavg, geometric mean (geometric CV %): 24.61 (18.535) ng/mL
  CSF Cmax, geometric mean (geometric CV %): 26.21 (57.4) ng/mL
  CSF Ctrough, geometric mean (geometric CV %): 18.69 (12.398) ng/mL
[1]; Cohort 3 (12 mg BID)
  CSF AUCtau, geometric mean (geometric CV %): 157.9 (34.0) h*ng/mL
  CSF Cavg, geometric mean (geometric CV %): 13.76 (4.0021) ng/mL
  CSF Cmax, geometric mean (geometric CV %): 21.34 (33.5) ng/mL
  CSF Ctrough, geometric mean (geometric CV %): 7.027 (3.2364) ng/mL
[1]; Cohort 4A (15 mg BID)
  CSF AUCtau, geometric mean (geometric CV %): 171.2 (25.4) h*ng/mL
  CSF Cavg, geometric mean (geometric CV %): 14.63 (3.7448) ng/mL
  CSF Cmax, geometric mean (geometric CV %): 24.27 (32.3) ng/mL
  CSF Ctrough, geometric mean (geometric CV %): 6.512 (1.3508) ng/mL
[1]; Cohort 4B (18 mg BID)
  CSF AUCtau, geometric mean (geometric CV %): 202.5 (30.1) h*ng/mL
  CSF Cavg, geometric mean (geometric CV %): 17.51 (5.7327) ng/mL
  CSF Cmax, geometric mean (geometric CV %): 30.05 (20.9) ng/mL
  CSF Ctrough, geometric mean (geometric CV %): 7.700 (3.5802) ng/mL
Plasma protein; 6 mg, Day 11, Cohort 1 (6 mg TID)
  fraction unbound at 11 day: 0.969
Plasma protein; 12 mg, Day 11, Cohort 2 (12 mg TID)
  fraction unbound at 11 day: 0.968
Plasma protein; 12 mg, Day 11, Cohort 3 (12 mg BID)
  fraction unbound at 11 day: 0.93
Plasma protein; 15 mg, Day 11, Cohort 4A (15 mg BID)
  fraction unbound at 11 day: 0.913
Plasma protein; 18 mg, Day 11, Cohort 4B (18 mg BID)
  fraction unbound at 11 day: 0.926
[2]
  increase in Compound 1 exposure: ~80%
clinical; CSF / free (unbound) plasma, CSF/P Cmax ratio, across all cohorts
  Kp: 0.663 to 0.764
clinical; CSF / free (unbound) plasma, CSF/P Ctrough ratio, across all cohorts
  Kp: 1.26 to 1.92
clinical; CSF / free drug in plasma, 6 mg, CSF/P Ctrough, mean (SD), CSF to free drug plasma ratio, Day 11, Cohort 1 (6 mg TID)
  Kp: 1.26
clinical; CSF / free drug in plasma, 12 mg, CSF/P Ctrough, mean (SD), CSF to free drug plasma ratio, Day 11, Cohort 2 (12 mg TID)
  Kp: 1.31
clinical; CSF / free drug in plasma, 12 mg, CSF/P Ctrough, mean (SD), CSF to free drug plasma ratio, Day 11, Cohort 3 (12 mg BID)
  Kp: 1.92
clinical; CSF / free drug in plasma, 15 mg, CSF/P Ctrough, mean (SD), CSF to free drug plasma ratio, Day 11, Cohort 4A (15 mg BID)
  Kp: 1.48
clinical; CSF / free drug in plasma, 18 mg, CSF/P Ctrough, mean (SD), CSF to free drug plasma ratio, Day 11, Cohort 4B (18 mg BID)
  Kp: 1.69
clinical; 6 mg, median (minimum, maximum), Day 11, Cohort 1 (6 mg TID)
  Tmax: 2.52 h
clinical; 12 mg, median (minimum, maximum), Day 11, Cohort 2 (12 mg TID)
  Tmax: 3.04 h
clinical; 12 mg, median (minimum, maximum), Day 11, Cohort 3 (12 mg BID)
  Tmax: 2.53 h
clinical; 15 mg, median (minimum, maximum), Day 11, Cohort 4A (15 mg BID)
  Tmax: 3.02 h
clinical; 18 mg, median (minimum, maximum), Day 11, Cohort 4B (18 mg BID)
  Tmax: 3.06 h
clinical; Day 11, across cohorts
  Tmax: 2.52 to 3.06 h
[3]; Cohorts 1 and 2
  safety and tolerability: Favorable safety and tolerability results
[3]; all cohorts
  safety and tolerability: Favorable safety and tolerability results
CYP3A4, CYP2D6, P-gp; alone or in combination with other probe substrates
  safety and tolerability: safe and generally well-tolerated
CYP3A4, CYP2D6, P-gp; lack of effect of quinidine on exposure
  substrate for CYP3A4, CYP2D6 or P-gp: not a substrate for CYP3A4, CYP2D6, or P-gp
